Experimental findings from US12559492B2, “BRAF degraders” (C4 Therapeutics, Inc., priority 2020, dated 2026) are described below.

This test concerns the target BRAF^V600E protein (Homo sapiens, UniProt P15056, V600E). The test can be described thus: HiBiT cellular BRAF V600E degradation assay. It is filed as cell-based. The settings on record: 24 h incubation; for DC50: A375.10 cells (HiBiT tag knocked in at N-terminal of BRAF V600E), concentration at which 50% of total cellular BRAF V600E is degraded; for Emax: read-out: HiBit 24 h Emax. (The HiBiT peptide binds its large partner to form an active luciferase.)

[1] abbreviates: A375.10 cells, Emax = amount of residual protein remaining in the cell after compound treatment.

One may read the DC50 as the concentration at which degradation of the target reaches its halfway point. Low readings indicate degradation at low concentration, high ones degradation only at high concentration. The term Emax denotes the maximal effect, on the per cent scale that the assay sets.

BRAF^V600E protein, sequence (P15056 whole entry V600E): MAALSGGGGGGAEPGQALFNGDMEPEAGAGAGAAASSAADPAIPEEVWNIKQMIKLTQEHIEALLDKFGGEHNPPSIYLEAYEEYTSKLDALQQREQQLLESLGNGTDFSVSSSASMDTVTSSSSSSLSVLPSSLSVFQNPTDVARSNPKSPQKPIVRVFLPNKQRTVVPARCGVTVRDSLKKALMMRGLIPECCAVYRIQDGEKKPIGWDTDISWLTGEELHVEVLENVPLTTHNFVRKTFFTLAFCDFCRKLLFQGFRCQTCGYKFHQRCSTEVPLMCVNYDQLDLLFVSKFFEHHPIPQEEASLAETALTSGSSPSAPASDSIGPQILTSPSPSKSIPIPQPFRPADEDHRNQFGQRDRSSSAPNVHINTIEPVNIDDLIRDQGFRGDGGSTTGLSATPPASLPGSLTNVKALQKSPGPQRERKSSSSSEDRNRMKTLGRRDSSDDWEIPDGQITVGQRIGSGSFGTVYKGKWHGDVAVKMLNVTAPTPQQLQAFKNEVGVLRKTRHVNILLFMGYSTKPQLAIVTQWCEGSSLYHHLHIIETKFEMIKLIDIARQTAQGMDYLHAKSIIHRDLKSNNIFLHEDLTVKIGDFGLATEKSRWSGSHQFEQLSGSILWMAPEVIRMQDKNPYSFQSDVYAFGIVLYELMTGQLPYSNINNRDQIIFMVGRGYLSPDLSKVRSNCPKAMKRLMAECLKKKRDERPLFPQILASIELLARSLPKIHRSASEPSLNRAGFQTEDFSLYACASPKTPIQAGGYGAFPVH

With `CCN(C)S(=O)(=O)Nc1ccc(F)c(C(=O)c2c[nH]c3ncc(-c4ccc(N5CCN(C(=O)CN6CCC(c7ccc(NC8CCC(=O)NC8=O)cc7)CC6)CC5)cc4)cc23)c1F` (stereo not shown) [Example 84, 5-[4-[4-[2-[4-[4-[(2,6-dioxo-3-piperidyl)amino]phenyl]-1-piperidyl]acetyl]piperazin-1-yl]phenyl]-3-[3-[[ethyl(methyl)sulfamoyl]amino]-2,6-difluoro-benzoyl]-1H-pyrrolo[2,3-b]pyridine], it took 3.14 nM to reach half-maximal degradation (DC50). Further, the “HiBit 24 h Emax” value under setting [1] is on record as 9.62%.
As for `CCN(C)S(=O)(=O)Nc1ccc(F)c(C(=O)c2c[nH]c3ncc(-c4ccc(N5CCN(C(=O)CC6(O)CCN(c7ccc(NC8CCC(=O)NC8=O)cc7)CC6)CC5)cc4)cc23)c1F` (stereo not shown) [Example 86, 5-[4-[4-[2-[1-[4-[(2,6-dioxo-3-piperidyl)amino]phenyl]-4-hydroxy-4-piperidyl]acetyl]piperazin-1-yl]phenyl]-3-[3-[[ethyl(methyl)sulfamoyl]amino]-2,6-difluoro-benzoyl]-1H-pyrrolo[2,3-b]pyridine], it took 4.29 nM to reach half-maximal degradation (DC50). For the same compound, the Emax under setting [1] amounted to 11.8%.
For the compound `CCN(C)S(=O)(=O)Nc1ccc(F)c(C(=O)c2c[nH]c3ncc(-c4ccc(N5CCN(C(=O)CC6(O)CCN(c7ccc(NC8CCC(=O)NC8=O)cc7F)C6)CC5)cc4)cc23)c1F` (stereo not shown) [Example 87, 5-[4-[4-[2-[1-[4-[(2,6-dioxo-3-piperidyl)amino]-2-fluoro-phenyl]-3-hydroxy-pyrrolidin-3-yl]acetyl]piperazin-1-yl]phenyl]-3-[3-[[ethyl(methyl)sulfamoyl]amino]-2,6-difluoro-benzoyl]-1H-pyrrolo[2,3-b]pyridine], half-maximal degradation (DC50) was put at 13.3 nM. The Emax under setting [1] stood at 9.64%.
Take `CCN(C)S(=O)(=O)Nc1ccc(F)c(C(=O)c2c[nH]c3ncc(-c4ccc(N5CCN(C(=O)CC6(O)CCN(c7ccc(NC8CCC(=O)NC8=O)cn7)CC6)CC5)cc4)cc23)c1F` (stereo not shown) [Example 88, 5-[4-[4-[2-[1-[5-[(2,6-dioxo-3-piperidyl)amino]-2-pyridyl]-4-hydroxy-4-piperidyl]acetyl]piperazin-1-yl]phenyl]-3-[3-[[ethyl(methyl)sulfamoyl]amino]-2,6-difluoro-benzoyl]-1H-pyrrolo[2,3-b]pyridine]: the DC50 worked out at 15.7 nM. Under setting [1], the Emax was 22.2%.
Taken in the same sequence, the figures for `CCN(C)S(=O)(=O)Nc1ccc(F)c(C(=O)c2c[nH]c3ncc(-c4ccc(N5CCN(C(=O)CC6(O)CCN(c7ccc(NC8CCC(=O)NC8=O)cc7F)CC6)CC5)cc4)cc23)c1F` (stereo not shown) [Example 89, 5-[4-[4-[2-[1-[4-[(2,6-dioxo-3-piperidyl)amino]-2-fluoro-phenyl]-4-hydroxy-4-piperidyl]acetyl]piperazin-1-yl]phenyl]-3-[3-[[ethyl(methyl)sulfamoyl]amino]-2,6-difluoro-benzoyl]-1H-pyrrolo[2,3-b]pyridine] were 1.4 nM and 8.6%.
The compound `CCN(C)S(=O)(=O)Nc1ccc(F)c(C(=O)c2c[nH]c3ncc(-c4ccc(N5CCN(C(=O)CC6(O)CCN(c7ncc(NC8CCC(=O)NC8=O)cc7F)CC6)CC5)cc4)cc23)c1F` (stereo not shown) [Example 90, 5-[4-[4-[2-[1-[5-[(2,6-dioxo-3-piperidyl)amino]-3-fluoro-2-pyridyl]-4-hydroxy-4-piperidyl]acetyl]piperazin-1-yl]phenyl]-3-[3-[[ethyl(methyl)sulfamoyl]amino]-2,6-difluoro-benzoyl]-1H-pyrrolo[2,3-b]pyridine] had a DC50 of 2.13 nM. In addition, the Emax under setting [1] is 7.44%.
`CCN(C)S(=O)(=O)Nc1ccc(F)c(C(=O)c2c[nH]c3ncc(-c4ccc(C5=CCN(C(=O)CC6CCN(c7ccc(NC8CCC(=O)NC8=O)cc7)CC6)CC5)cc4)cc23)c1F` (stereo not shown) [Example 92, 5-[4-[1-[2-[1-[4-[(2,6-dioxo-3-piperidyl)amino]phenyl]-4-piperidyl]acetyl]-3,6-dihydro-2H-pyridin-4-yl]phenyl]-3-[3-[[ethyl(methyl)sulfamoyl]amino]-2,6-difluoro-benzoyl]-1H-pyrrolo[2,3-b]pyridine]: it took 22.9 nM to reach half-maximal degradation (DC50). Besides, the Emax under setting [1] came out at 4.78%.
The compound `CCN(C)S(=O)(=O)Nc1ccc(F)c(C(=O)c2c[nH]c3ncc(-c4cc(F)c(N5CCN(C(=O)CN6CCC(c7ccc(NC8CCC(=O)NC8=O)cc7)CC6)CC5)c(F)c4)cc23)c1F` (stereo not shown) [Example 93, 5-[4-[4-[2-[4-[4-[(2,6-dioxo-3-piperidyl)amino]phenyl]-1-piperidyl]acetyl]piperazin-1-yl]-3,5-difluoro-phenyl]-3-[3-[[ethyl(methyl)sulfamoyl]amino]-2,6-difluoro-benzoyl]-1H-pyrrolo[2,3-b]pyridine] had a 50% degradation concentration (DC50) of 23.8 nM. In addition, the Emax under setting [1] worked out at 8.31%.
The compound `CCN(C)S(=O)(=O)Nc1ccc(F)c(C(=O)c2c[nH]c3ncc(-c4ccc(CN5CCN(CC(=O)N6CCC(c7ccc(NC8CCC(=O)NC8=O)cc7)CC6)CC5)cc4)cc23)c1F` (stereo not shown) [Example 94, 5-[4-[[4-[2-[4-[4-[(2,6-dioxo-3-piperidyl)amino]phenyl]-1-piperidyl]-2-oxo-ethyl]piperazin-1-yl]methyl]phenyl]-3-[3-[[ethyl(methyl)sulfamoyl]amino]-2,6-difluoro-benzoyl]-1H-pyrrolo[2,3-b]pyridine] came in with a DC50 of 21.2 nM. In addition, the Emax under setting [1] came out at 12.8%.
As to `CCN(C)S(=O)(=O)Nc1ccc(F)c(C(=O)c2c[nH]c3ncc(-c4ccc(CN5CCN(C(=O)CN6CCN(c7ccc(NC8CCC(=O)NC8=O)cc7)CC6)CC5)cc4)cc23)c1F` (stereo not shown) [Example 95, 5-[4-[[4-[2-[4-[4-[(2,6-dioxo-3-piperidyl)amino]phenyl]piperazin-1-yl]acetyl]piperazin-1-yl]methyl]phenyl]-3-[3-[[ethyl(methyl)sulfamoyl]amino]-2,6-difluoro-benzoyl]-1H-pyrrolo[2,3-b]pyridine], it took 30.4 nM to reach half-maximal degradation (DC50). Moreover, under setting [1], the Emax worked out at 12.8%.
Turning to `CCN(C)S(=O)(=O)Nc1cccc(C(=O)c2c[nH]c3ncc(-c4cnc(N5CCN(C(=O)CN6CCC(c7ccc(NC8CCC(=O)NC8=O)cc7)CC6)CC5)nc4)cc23)c1F` (stereo not shown) [Example 96, 5-[2-[4-[2-[4-[4-[(2,6-dioxo-3-piperidyl)amino]phenyl]-1-piperidyl]acetyl]piperazin-1-yl]pyrimidin-5-yl]-3-[3-[[ethyl(methyl)sulfamoyl]amino]-2-fluoro-benzoyl]-1H-pyrrolo[2,3-b]pyridine], it took 9.43 nM to reach half-maximal degradation (DC50). Moreover, the Emax under setting [1] came out at 8.26%.
`CCN(C)S(=O)(=O)Nc1cccc(C(=O)c2c[nH]c3ncc(-c4cnc(N5CCN(C(=O)CN6CCC(c7ccc(NC8CCC(=O)NC8=O)cc7F)CC6)CC5)nc4)cc23)c1F` (stereo not shown) [Example 97, 5-[2-[4-[2-[4-[4-[(2,6-dioxo-3-piperidyl)amino]-2-fluoro-phenyl]-1-piperidyl]acetyl]piperazin-1-yl]pyrimidin-5-yl]-3-[3-[[ethyl(methyl)sulfamoyl]amino]-2-fluoro-benzoyl]-1H-pyrrolo[2,3-b]pyridine] returned a DC50 of 6.62 nM. Under setting [1], the Emax is 7.94%.
With `CCN(C)S(=O)(=O)Nc1cccc(C(=O)c2c[nH]c3ncc(-c4cnc(N5CCN(C(=O)CC6CCN(c7ccc(NC8CCC(=O)NC8=O)cc7F)CC6)CC5)nc4)cc23)c1F` (stereo not shown) [Example 98, 5-[2-[4-[2-[1-[4-[(2,6-dioxo-3-piperidyl)amino]-2-fluoro-phenyl]-4-piperidyl]acetyl]piperazin-1-yl]pyrimidin-5-yl]-3-[3-[[ethyl(methyl)sulfamoyl]amino]-2-fluoro-benzoyl]-1H-pyrrolo[2,3-b]pyridine], it took 4.67 nM to reach half-maximal degradation (DC50). In addition, the Emax under setting [1] is 7.42%.
`CCN(C)S(=O)(=O)Nc1cccc(C(=O)c2c[nH]c3ncc(-c4cnc(N5CCN(C(=O)CC6(O)CCN(c7ccc(NC8CCC(=O)NC8=O)cc7)CC6)CC5)nc4)cc23)c1F` (stereo not shown) [Example 99, 5-[2-[4-[2-[1-[4-[(2,6-dioxo-3-piperidyl)amino]phenyl]-4-hydroxy-4-piperidyl]acetyl]piperazin-1-yl]pyrimidin-5-yl]-3-[3-[[ethyl(methyl)sulfamoyl]amino]-2-fluoro-benzoyl]-1H-pyrrolo[2,3-b]pyridine] registered a DC50 of 9.55 nM. Also, the Emax under setting [1] worked out at 13.2%.
Taken in the same sequence, the figures for `CCN(C)S(=O)(=O)Nc1cccc(C(=O)c2c[nH]c3ncc(-c4cnc(N5CCN(C(=O)CN6CCC(c7ccc(NC8CCC(=O)NC8=O)cc7)C(F)(F)C6)CC5)nc4)cc23)c1F` (stereo not shown) [Example 100, 5-[2-[4-[2-[4-[4-[(2,6-dioxo-3-piperidyl)amino]phenyl]-3,3-difluoro-1-piperidyl]acetyl]piperazin-1-yl]pyrimidin-5-yl]-3-[3-[[ethyl(methyl)sulfamoyl]amino]-2-fluoro-benzoyl]-1H-pyrrolo[2,3-b]pyridine] were 9.52 nM and 6.76%.
Turning to `CCN(C)S(=O)(=O)Nc1cccc(C(=O)c2c[nH]c3ncc(-c4cnc(N5CCN(C(=O)CC6(O)CCN(c7ccc(NC8CCC(=O)NC8=O)cc7F)CC6)CC5)nc4)cc23)c1F` (stereo not shown) [Example 101, 5-[2-[4-[2-[1-[4-[(2,6-dioxo-3-piperidyl)amino]-2-fluoro-phenyl]-4-hydroxy-4-piperidyl]acetyl]piperazin-1-yl]pyrimidin-5-yl]-3-[3-[[ethyl(methyl)sulfamoyl]amino]-2-fluoro-benzoyl]-1H-pyrrolo[2,3-b]pyridine], the DC50 came to 3.38 nM. Under setting [1], the Emax was determined as 10.2%.
For the compound `CCN(C)S(=O)(=O)Nc1cccc(C(=O)c2c[nH]c3ncc(-c4cnc(N5CCN(C(=O)CC6(O)CCN(c7ccc(NC8CCC(=O)NC8=O)cc7F)C6)CC5)nc4)cc23)c1F` (stereo not shown) [Example 102, 5-[2-[4-[2-[1-[4-[(2,6-dioxo-3-piperidyl)amino]-2-fluoro-phenyl]-3-hydroxy-pyrrolidin-3-yl]acetyl]piperazin-1-yl]pyrimidin-5-yl]-3-[3-[[ethyl(methyl)sulfamoyl]amino]-2-fluoro-benzoyl]-1H-pyrrolo[2,3-b]pyridine], the DC50 was 6.88 nM. Also, under setting [1], the Emax came to 8.28%.
